The values below come from patent US11306092B2, “Amino indole compounds useful as TLR inhibitors” (BRISTOL-MYERS SQUIBB COMPANY, priority 2017, dated 2022).

Molecules are shown by their SMILES. pIC50: −log10 of the molar value.

Holding throughout (assay type): cell-based
The target of assay [1] is T1, human TLR8 (Homo sapiens, UniProt Q9NR97).
T1 construct: host or cells: HEK-Blue cells
T1 sequence (Q9NR97 27-1041): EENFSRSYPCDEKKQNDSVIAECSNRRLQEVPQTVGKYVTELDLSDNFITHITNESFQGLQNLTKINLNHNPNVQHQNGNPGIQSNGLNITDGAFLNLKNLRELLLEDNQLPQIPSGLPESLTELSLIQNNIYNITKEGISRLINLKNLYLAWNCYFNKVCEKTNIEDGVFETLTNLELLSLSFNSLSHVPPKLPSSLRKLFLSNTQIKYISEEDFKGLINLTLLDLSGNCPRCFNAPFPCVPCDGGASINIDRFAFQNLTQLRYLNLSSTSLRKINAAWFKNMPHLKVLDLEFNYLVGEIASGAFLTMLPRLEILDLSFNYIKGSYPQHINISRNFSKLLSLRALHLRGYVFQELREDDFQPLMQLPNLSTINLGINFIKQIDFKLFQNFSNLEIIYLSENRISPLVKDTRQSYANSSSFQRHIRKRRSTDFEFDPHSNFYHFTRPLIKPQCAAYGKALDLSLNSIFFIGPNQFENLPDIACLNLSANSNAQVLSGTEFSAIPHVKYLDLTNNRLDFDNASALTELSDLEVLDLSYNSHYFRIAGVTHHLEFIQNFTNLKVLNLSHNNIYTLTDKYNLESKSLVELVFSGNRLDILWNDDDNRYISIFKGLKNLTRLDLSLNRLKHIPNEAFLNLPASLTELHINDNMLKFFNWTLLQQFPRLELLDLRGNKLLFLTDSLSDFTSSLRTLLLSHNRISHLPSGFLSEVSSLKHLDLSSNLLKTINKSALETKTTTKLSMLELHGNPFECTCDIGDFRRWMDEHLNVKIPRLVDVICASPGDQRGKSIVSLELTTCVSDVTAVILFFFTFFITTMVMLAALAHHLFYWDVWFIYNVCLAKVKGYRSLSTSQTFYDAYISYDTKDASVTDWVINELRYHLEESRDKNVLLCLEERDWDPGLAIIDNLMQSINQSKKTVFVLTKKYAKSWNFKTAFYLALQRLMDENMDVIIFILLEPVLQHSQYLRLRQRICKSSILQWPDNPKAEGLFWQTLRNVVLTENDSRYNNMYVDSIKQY
In words: TLR8 inhibition reporter assay (HEK-Blue SEAP reporter). The settings on record: HEK-Blue cells overexpressing human TLR8; R848 15.9 μM; 22 hour incubation. The protocol: TLR7/8/9 Inhibition Reporter Assays
HEK-Blue™-cells (Invivogen) overexpressing human TLR7, TLR8 or TLR9 receptors were used for screening inhibitors of these receptors using an inducible SEAP (secreted embryonic alkaline phosphatase) reporter gene under the control of the IFN-β minimal promoter fused to five NF-κB and AP-1-binding sites. Briefly, cells are seeded into Greiner 384 well plates (15000 cells per well for TLR7, 20,000 for TLR8 and 25,000 for TLR9) and then treated with test compounds in DMSO to yield a final dose response concentration range of 0.05 nM-50 μM. After a 30 minute compound pre-treatment at room temperature, the cells are then stimulated with a TLR7 ligand (gardiquimod at a final concentration of 7.5 μM), TLR8 ligand (R848 at a final concentration of 15.9 μM) or TLR9 ligand (ODN2006 at a final concentration of 5 nM) to activate NF-κB and AP-1 which induce the production of SEAP. After a 22 hour incubation at 37° C., 5% CO2, SEAP levels are determined with the addition of HEK-Blue™ Detection reagent (Invivogen), a cell culture medium that allows for detection of SEAP, according to manufacturer's specifications. The percent inhibition is determined as the % reduction in the HEK-Blue signal present in wells treated with agonist plus DMSO alone compared to wells treated with a known inhibitor.

The target of assay [2] is T2, human TLR7 (Homo sapiens, UniProt Q9NYK1).
T2 construct: host or cells: HEK-Blue cells
T2 sequence (Q9NYK1 27-1049): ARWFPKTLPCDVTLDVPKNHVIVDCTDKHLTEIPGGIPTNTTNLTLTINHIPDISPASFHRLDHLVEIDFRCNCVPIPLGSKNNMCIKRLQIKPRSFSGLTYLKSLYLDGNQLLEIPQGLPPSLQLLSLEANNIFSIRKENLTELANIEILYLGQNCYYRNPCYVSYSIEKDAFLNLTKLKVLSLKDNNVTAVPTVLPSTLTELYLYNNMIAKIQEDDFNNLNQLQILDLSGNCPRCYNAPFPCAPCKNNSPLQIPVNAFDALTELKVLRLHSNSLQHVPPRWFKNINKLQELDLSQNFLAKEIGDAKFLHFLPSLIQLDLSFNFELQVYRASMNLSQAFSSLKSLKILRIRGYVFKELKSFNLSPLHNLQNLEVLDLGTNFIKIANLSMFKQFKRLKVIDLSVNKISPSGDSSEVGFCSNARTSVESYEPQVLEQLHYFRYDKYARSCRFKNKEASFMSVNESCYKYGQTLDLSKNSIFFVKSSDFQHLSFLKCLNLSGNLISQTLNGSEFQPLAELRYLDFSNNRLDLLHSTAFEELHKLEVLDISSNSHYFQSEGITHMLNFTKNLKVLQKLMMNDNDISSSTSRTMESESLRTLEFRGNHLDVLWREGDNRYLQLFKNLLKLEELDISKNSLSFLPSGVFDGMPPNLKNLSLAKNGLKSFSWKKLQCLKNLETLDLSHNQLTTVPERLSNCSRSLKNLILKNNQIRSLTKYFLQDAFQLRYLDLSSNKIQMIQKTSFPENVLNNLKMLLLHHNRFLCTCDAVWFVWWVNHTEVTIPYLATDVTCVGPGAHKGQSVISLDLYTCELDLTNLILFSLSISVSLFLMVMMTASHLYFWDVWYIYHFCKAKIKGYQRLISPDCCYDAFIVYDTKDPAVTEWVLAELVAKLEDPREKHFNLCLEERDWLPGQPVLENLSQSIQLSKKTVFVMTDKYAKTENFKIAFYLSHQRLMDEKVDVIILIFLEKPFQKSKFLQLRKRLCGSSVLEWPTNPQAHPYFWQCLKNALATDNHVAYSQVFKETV
Briefly: TLR7 inhibition reporter assay (HEK-Blue SEAP reporter). The settings on record: HEK-Blue cells overexpressing human TLR7; gardiquimod 7.5 μM; 22 hour incubation. In outline: (§1)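 HEK-Blue cells overexpressing human TLR7, TLR8 or TLR9 carry a SEAP reporter driven by NF-κB/AP-1 sites. Compounds (0.05 nM–50 μM) were preincubated 30 min at room temperature, then cells were stimulated with gardiquimod 7.5 μM (TLR7), R848 15.9 μM (TLR8) or ODN2006 5 nM (TLR9) for 22 h at 37 °C.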

In assay [3] the target is T3, human TLR9 (Homo sapiens, UniProt Q9NR96).
T3 construct: host or cells: HEK-Blue cells
T3 sequence (Q9NR96 26-1032): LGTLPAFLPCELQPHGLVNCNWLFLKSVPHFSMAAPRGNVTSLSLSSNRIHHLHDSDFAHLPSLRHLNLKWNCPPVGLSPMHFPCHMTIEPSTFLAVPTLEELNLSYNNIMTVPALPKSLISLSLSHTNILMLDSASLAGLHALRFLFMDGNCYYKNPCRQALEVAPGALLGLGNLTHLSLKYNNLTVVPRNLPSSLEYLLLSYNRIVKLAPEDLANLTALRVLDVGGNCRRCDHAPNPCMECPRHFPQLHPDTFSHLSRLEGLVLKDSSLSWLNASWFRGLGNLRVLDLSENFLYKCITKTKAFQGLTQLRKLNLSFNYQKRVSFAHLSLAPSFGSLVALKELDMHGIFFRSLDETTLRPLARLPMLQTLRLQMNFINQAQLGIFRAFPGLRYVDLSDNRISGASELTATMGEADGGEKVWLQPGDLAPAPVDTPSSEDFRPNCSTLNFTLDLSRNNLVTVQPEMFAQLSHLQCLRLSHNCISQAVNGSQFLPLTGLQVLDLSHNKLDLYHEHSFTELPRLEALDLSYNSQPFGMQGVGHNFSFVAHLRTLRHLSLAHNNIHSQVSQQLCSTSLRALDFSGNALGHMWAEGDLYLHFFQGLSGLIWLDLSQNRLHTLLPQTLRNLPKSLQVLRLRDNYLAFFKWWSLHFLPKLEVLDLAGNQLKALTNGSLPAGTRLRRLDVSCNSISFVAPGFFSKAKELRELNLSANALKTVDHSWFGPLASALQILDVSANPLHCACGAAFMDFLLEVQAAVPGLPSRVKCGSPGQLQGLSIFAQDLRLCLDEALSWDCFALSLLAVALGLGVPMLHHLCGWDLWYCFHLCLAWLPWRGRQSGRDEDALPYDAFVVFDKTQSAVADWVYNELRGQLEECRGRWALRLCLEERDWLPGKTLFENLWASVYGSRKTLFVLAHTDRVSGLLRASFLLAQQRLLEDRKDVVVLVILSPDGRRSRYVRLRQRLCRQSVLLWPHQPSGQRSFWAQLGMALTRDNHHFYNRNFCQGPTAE
In words: TLR9 inhibition reporter assay (HEK-Blue SEAP reporter). To be noted: HEK-Blue cells overexpressing human TLR9; ODN2006 5 nM; 22 hour incubation. Summed up: as §1

Turning to `Cc1cc(-c2[nH]c3ccc(N4CCNC4=O)cc3c2C(C)C)ccn1` [Example 8, 1-(3-isopropyl-2-(2-methylpyridin-4-yl)-1H-indol-5-yl)imidazolidin-2-one], the results for the negative-log IC50 (pIC50) in assay [1], in assay [2] and in assay [3] were 7.60, 7.04 and below 4.30, respectively.

In the case of `CC(C)c1c(-c2ccnc3[nH]ncc23)[nH]c2ccc(NC(=O)[C@@H]3CCNC3)cc12` [Example 9, (R)—N-(3-isopropyl-2-(1H-pyrazolo[3,4-b]pyridin-4-yl)-1H-indol-5-yl)pyrrolidine-3-carboxamide], the pIC50 is 7.15 in assay [1], 6.09 in assay [2] and 5.25 in assay [3].

Regarding `CC(C)c1c(-c2ccnc3[nH]ncc23)[nH]c2ccc(NC(=O)[C@H]3CCNC3)cc12` [Example 10, (S)—N-(3-isopropyl-2-(1H-pyrazolo[3,4-b]pyridin-4-yl)-1H-indol-5-yl)pyrrolidine-3-carboxamide], the pIC50 in assay [1] is 7.02; in assay [2], 7.14; in assay [3], 5.11.

For `COc1ccc(-c2[nH]c3ccc(NC(=O)CN)cc3c2C(C)C)cc1OC` [Example 11, 2-amino-N-(2-(3,4-dimethoxyphenyl)-3-isopropyl-1H-indol-5-yl)acetamide], the pIC50 in assay [1] is 7.77; in assay [2], 6.54; in assay [3] it was 5.07.

Take `COc1ccc(-c2[nH]c3ccc(NC(=O)CCCN)cc3c2C(C)C)cc1OC` [Example 12, 4-amino-N-(2-(3,4-dimethoxyphenyl)-3-isopropyl-1H-indol-5-yl)butanamide]: the results for the negative-log IC50 (pIC50) in assay [1], in assay [2] and in assay [3] were 7.43, 6.69 and 5.25, respectively.

With `COc1ccc(-c2[nH]c3ccc(NC(=O)C4CCNC4)cc3c2C(C)C)cc1OC` (stereo not drawn) [Example 13, N-(2-(3,4-dimethoxyphenyl)-3-isopropyl-1H-indol-5-yl) pyrrolidine-3-carboxamide], the pIC50 in assay [1] was 8.08; in assay [2], 7.29; in assay [3], 6.26.

Take `CCC[C@@H](N)C(=O)Nc1ccc2[nH]c(-c3ccc(OC)c(OC)c3)c(C(C)C)c2c1` [Example 14, (R)-2-amino-N-(2-(3,4-dimethoxyphenyl)-3-isopropyl-1H-indol-5-yl)pentanamide]: the pIC50 in assay [1] was 7.17; in assay [2], 6.46; in assay [3], 5.11.

As to `COc1ccc(-c2[nH]c3ccc(NC(=O)C4CNCCO4)cc3c2C(C)C)cc1OC` (stereo not drawn) [Example 15, N-(2-(3,4-dimethoxyphenyl)-3-isopropyl-1H-indol-5-yl)morpholine-2-carboxamide], the pIC50 in assay [1] was 8.47; in assay [2], 7.60; in assay [3], 5.13.

As for `COc1ccc(-c2[nH]c3ccc(NC(=O)[C@H](N)CC(C)C)cc3c2C(C)C)cc1OC` [Example 16, (R)-2-amino-N-(2-(3,4-dimethoxyphenyl)-3-isopropyl-1H-indol-5-yl)-4-methylpentanamide], the negative logarithm of the IC50 (pIC50) in assay [1] is 7.33; in assay [2] it was 5.68; in assay [3], 5.24.

Turning to `CC[C@@H](C)[C@@H](N)C(=O)Nc1ccc2[nH]c(-c3ccc(OC)c(OC)c3)c(C(C)C)c2c1` [Example 17, (2R,3R)-2-amino-N-(2-(3,4-dimethoxyphenyl)-3-isopropyl-1H-indol-5-yl)-3-methylpentanamide], the figures for the pIC50 in assay [1], in assay [2] and in assay [3] were 7.14, 6.52 and 5.22, respectively.

Consider `COc1ccc(-c2[nH]c3ccc(NC(=O)[C@@H](N)CCCN)cc3c2C(C)C)cc1OC` [Example 20, (S)-2,5-diamino-N-(2-(3,4-dimethoxyphenyl)-3-isopropyl-1H-indol-5-yl)pentanamide], for which the pIC50 is 6.97 in assay [1], 6.90 in assay [2] and below 4.30 in assay [3].

For `COc1ccc(-c2[nH]c3ccc(NC(=O)[C@@H]4CCCC[C@@H]4N)cc3c2C(C)C)cc1OC` [Example 21, (1R,2S)-2-amino-N-(2-(3,4-dimethoxyphenyl)-3-isopropyl-1H-indol-5-yl)cyclohexane-1-carboxamide], the pIC50 is 7.12 in assay [1], 6.89 in assay [2] and 5.86 in assay [3].
